Experimental findings from patent US12441762B2, “Hepatitis c virus NS3/4A protease inhibitors” (priority 2019, dated 2025) are described below.

Data set [1] addresses T1, HCV NS3/4A protease D168A variant (Hepatitis C virus genotype 1a, UniProt P27958, C1185S/D1194A).
T1 construct: His-tag (cleaved yes); made in house; host or cells: Escherichia coli BL21(DE3), PET28a vector
In words: biochemical. Format: biochemical. The essentials:
(§1)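 Inhibitors pre-incubated 1 h at room temperature with 2 nM NS3/4A protease (GT1a C159S or D168A) in 50 mM Tris, 5% glycerol, 10 mM DTT, 0.6 mM LDAO, 4% DMSO, pH 7.5. Km from global Michaelis-Menten fit of inner-filter-corrected initial velocities; three independent data sets per inhibitor and construct.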

The test system of data set [2] is HCV NS3/4A protease D168A variant. In words: biochemical. It is filed as biochemical, Hepatitis C virus. Particulars: Table S1, value in parentheses. The essentials: as §1
In data set [3] the target is T2, wild-type HCV NS3/4A protease (GT1a) (Hepatitis C virus genotype 1a, UniProt P27958, C1185S).
T2 construct: His-tag (cleaved yes); made in house; host or cells: Escherichia coli BL21(DE3), PET28a vector
In words: biochemical. Format: biochemical. The gist of the method:
as §1

A further data set deals with HCV NS3/4A protease GT3 (Hepatitis C virus genotype 3a, UniProt Q81495). In words: biochemical.
The conditions of data set [4]: rcm bond, 70.0 °C, 6.0 h.
For data set [5] the following is noted: rcm bond, 15-membered ring, Zhan 1B, 1,2-DCE, 70.0 °C.

Read-outs that look alike come from different tables or passages of the source.

Sequence of HCV NS3/4A protease GT3 (Q81495 1033-1214): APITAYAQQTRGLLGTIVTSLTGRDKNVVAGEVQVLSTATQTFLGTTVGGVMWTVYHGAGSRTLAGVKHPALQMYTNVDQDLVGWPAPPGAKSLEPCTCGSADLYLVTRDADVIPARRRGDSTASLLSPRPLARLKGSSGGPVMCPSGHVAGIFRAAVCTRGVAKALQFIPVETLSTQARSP
Sequence of HCV NS3/4A protease GT3 (Q81495 1664-1717): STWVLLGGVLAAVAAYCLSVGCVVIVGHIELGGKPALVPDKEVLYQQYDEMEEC
T2 sequence (P27958 1027-1208 C1185S): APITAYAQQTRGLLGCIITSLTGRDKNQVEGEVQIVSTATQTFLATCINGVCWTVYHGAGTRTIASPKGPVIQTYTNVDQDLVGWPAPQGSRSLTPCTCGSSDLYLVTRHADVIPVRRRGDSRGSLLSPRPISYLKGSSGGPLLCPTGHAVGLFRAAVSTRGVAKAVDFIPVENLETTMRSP
T1 sequence (P27958 1027-1208 C1185S/D1194A): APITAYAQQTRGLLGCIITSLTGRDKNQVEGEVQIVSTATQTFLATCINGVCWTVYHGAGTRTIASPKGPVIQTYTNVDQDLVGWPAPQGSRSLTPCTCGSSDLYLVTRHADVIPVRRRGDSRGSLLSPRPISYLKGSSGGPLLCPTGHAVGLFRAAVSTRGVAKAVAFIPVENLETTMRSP

Regarding `COc1ccc2nc(C)c(O[C@@H]3C[C@H]4C(=O)N[C@]5(C(=O)NS(=O)(=O)C6(C)CC6)C[C@H]5/C=C\CCCCC[C@H](NC(=O)OC5(C)CCCC5)C(=O)N4C3)nc2c1` [AJ-74, 1-Methylcyclopentyl ((2R,6S,13aS,14aR,16aS, Z)-2-((7-methoxy-3-methylquinoxalin-2-yl)oxy)-14a-(((1-methylcyclopropyl)sulfonyl)carbamoyl)-5,16-dioxo-1,2,3,5,6,7,8,9,10,11,13a,14,14a,15,16,16a-hexadecahydrocyclopropa[e]pyrrolo[1,2-a][1,4]diazacyclopentadecin-6-yl) carbamate], the Ki – broadly, a dissociation constant, usually derived from enzyme kinetics or from competition with a known ligand – in data set [1] amounted to 16 ± 1.2 nM; in data set [3], 1.78 ± 0.3 nM; on HCV NS3/4A protease GT3, 151 ± 11 nM. Further, the “Fold Change of D168A Ki with respect to GT1a wild-type” value (“Fold Change of D168A Ki” below) in data set [2] is “(9) fold”.
Turning to `COc1ccc2nc(C(F)(F)F)c(O[C@@H]3C[C@H]4C(=O)N[C@]5(C(=O)NS(=O)(=O)C6(C)CC6)C[C@H]5/C=C\CCCCC[C@H](NC(=O)OC(C)(C)C)C(=O)N4C3)nc2c1` [CH-24, tert-Butyl ((2R,6S,13aS,14aR,16aS, Z)-2-((7-methoxy-3-(trifluoromethyl)quinoxalin-2-yl)oxy)-14a-(((1-methylcyclopropyl)sulfonyl)carbamoyl)-5,16-dioxo-1,2,3,5,6,7,8,9,10,11,13a,14,14a,15,16,16a-hexadecahydrocyclopropa[e]pyrrolo[1,2-a] [1,4]diazacyclopentadecin-6-yl) carbamate], the Ki in data set [1] was found to be 118 ± 13 nM; in data set [3], 5.77 ± 1.78 nM. Also, the ring closure, yield of all isomers in data set [4] (from C=CCCCCC[C@H](NC(=O)OC(C)(C)C)C(=O)N1C[C@H](Oc2nc3cc(OC)ccc3nc2C(F)(F)F)C[C@H]1C(=O)N[C@]1(C(=O)NS(=O)(=O)C2(C)CC2)C[C@H]1C=C, Zhan 1B, 1,2-dichloroethane, 5.73 mM) was 73%.
As for `COc1ccc2nc(C)c(O[C@@H]3C[C@H]4C(=O)N[C@]5(C(=O)NS(=O)(=O)C6(C)CC6)C[C@H]5/C=C\CCCCC[C@H](NC(=O)OC(C)(C)C)C(=O)N4C3)nc2c1` [JZ01-15, tert-Butyl ((2R,6S,13aS,14aR,16aS, Z)-2-((7-methoxy-3-methylquinoxalin-2-yl)oxy)-14a-(((1-methylcyclopropyl)sulfonyl)carbamoyl)-5,16-dioxo-1,2,3,5,6,7,8,9,10,11,13a,14,14a,15,16,16a-hexadecahydrocyclopropa[e]pyrrolo[1,2-a] [1,4]diazacyclopentadecin-6-yl) carbamate], the results for the Ki in data set [1] and in data set [3] were 52 ± 2.4 nM and 3.6 ± 0.44 nM, respectively. In addition, the “Fold Change of D168A Ki” value in data set [2] is on record as “(14) fold”. In addition, the ring closure, yield of all isomers was 70% in data set [4] (from C=CCCCCC[C@H](NC(=O)OC(C)(C)C)C(=O)N1C[C@H](Oc2nc3cc(OC)ccc3nc2C)C[C@H]1C(=O)N[C@]1(C(=O)NS(=O)(=O)C2(C)CC2)C[C@H]1C=C, Zhan 1B, 1,2-dichloroethane, 4.95 mM) and 70% in data set [4] (from C=CCCCCC[C@H](NC(=O)OC(C)(C)C)C(=O)N1C[C@H](Oc2nc3cc(OC)ccc3nc2C)C[C@H]1C(=O)N[C@]1(C(=O)NS(=O)(=O)C2(C)CC2)C[C@H]1C=C, Zhan 1b catalyst, 1,2-DCE, 4.95 mM).
Consider `COc1ccc2nc(C)c(O[C@@H]3C[C@H]4C(=O)N[C@]5(C(=O)NS(=O)(=O)C6(C)CC6)C[C@H]5/C=C\CCCCC[C@H](NC(=O)OC5(C)CCCC5)C(=O)N4C3)nc2c1` [JZ01-19], for which the inhibition constant Ki in data set [1] (Table 2, read-out: Ki D168A) came to 36 ± 1.8 nM; in data set [1] (Table S1, Morrison equation fit, read-out: Ki D168A) it was 36 ± 1.8 nM; in data set [3] (Table 2, read-out: Ki WT (GT1a)), 1.13 ± 0.22 nM; in data set [3] (Table S1, Morrison equation fit, read-out: Ki GT1a WT), 1.13 ± 0.22 nM; at HCV NS3/4A protease GT3 (Table 2, read-out: Ki GT3), 121 ± 16 nM. The “fold increase in potency against D168A compared to the parent compound” value (“fold increase in potency against D168A” for short) in data set [1] is approximately 3 fold. The “Fold Change of D168A Ki” value in data set [2] (listed as P4-3) is given as “(32) fold”.
With `COc1ccc2nc(C)c(O[C@@H]3C[C@H]4C(=O)N[C@]5(C(=O)NS(=O)(=O)C6(C)CC6)C[C@H]5/C=C\CCCCC[C@H](NC(=O)OC5CCCCC5)C(=O)N4C3)nc2c1` [NR03-67, Cyclohexyl ((2R,6S,13aS,14aR,16aS,Z)-2-((7-methoxy-3-methylquinoxalin-2-yl)oxy)-14a-(((1-methylcyclopropyl)sulfonyl)carbamoyl)-5,16-dioxo-1,2,3,5,6,7,8,9,10,11,13a,14,14a,15,16,16a-hexadecahydrocyclopropa[e]pyrrolo[1,2-a][1,4]diazacyclopentadecin-6-yl)carbamate], the Ki is 12.7 ± 1.2 nM in data set [1], 0.94 ± 0.25 nM in data set [3] and 145 ± 7 nM on HCV NS3/4A protease GT3. In addition, in data set [1], the “fold increase in potency against D168A” value is on record as approximately 3 fold. Further, in data set [2], the “Fold Change of D168A Ki” value is recorded as “(14) fold”.
As for `COc1ccc2nc(C)c(O[C@@H]3C[C@H]4C(=O)N[C@]5(C(=O)NS(=O)(=O)C6(C)CC6)C[C@H]5/C=C\CCCCC[C@H](NC(=O)O[C@@H]5C[C@@H]6C[C@@H]6C5)C(=O)N4C3)nc2c1` [NR03-77, (1R,3R,5S)-Bicyclo[3.1.0]hexan-3-yl ((2R,6S,13aS,14aR,16aS,Z)-2-((7-methoxy-3-methylquinoxalin-2-yl)oxy)-14a-(((1-methylcyclopropyl)sulfonyl)carbamoyl)-5,16-dioxo-1,2,3,5,6,7,8,9,10,11,13a,14,14a,15,16,16a-hexadecahydrocyclopropa[e]pyrrolo[1,2-a][1,4]diazacyclopentadecin-6-yl)carbamate], the Ki was found to be 2.3 ± 0.7 nM in data set [1], 0.54 ± 0.2 nM in data set [3] and 38.6 ± 1.5 nM on HCV NS3/4A protease GT3. Moreover, in data set [1] (compared to grazoprevir), the “fold more potent than grazoprevir towards D168A” value amounted to 20 fold. Also, the “fold increase in potency against D168A” value in data set [1] is reported as 26 fold. Besides, the “Fold Change of D168A Ki” value in data set [2] is “(4) fold”. The “fold improvement in potency against WT compared to P4-2” value in data set [3] (compared to P4-2) is given as approximately 3 fold.
Consider “tert-Butyl ((2R,6S,13aS,14aR,16aS, Z)-2-((7-methoxy-3-(trifluoromethyl) quinoxalin-2-yl) oxy)-14a-(((1-methylcyclopropyl) sulfonyl) carbamoyl)-5,16-dioxo-1,2,3,5,6,7,8,9,10,11,13a,14,14a,15,16,16a-hexadecahydrocyclopropa[e]pyrrolo[1,2-a] [1,4] diazacyclopentadecin-6-yl) carbamate”, for which the ring closure, isolated yield in data set [5] (5.73 mM) was 73%.
As for “tert-Butyl ((2R,6S,13aS,14aR,16aS, Z)-2-((7-methoxy-3-methylquinoxalin-2-yl) oxy)-14a-(((1-methylcyclopropyl) sulfonyl) carbamoyl)-5,16-dioxo-1,2,3,5,6,7,8,9,10,11,13a,14,14a,15,16,16a-hexadecahydrocyclopropa[e]pyrrolo[1,2-a] [1,4] diazacyclopentadecin-6-yl) carbamate”, the ring closure, isolated yield in data set [5] (4.95 mM) is 70%.
